Measurements from patent US20150065440A1 (Progen Pharmaceuticals Limited, priority 2007, published 2015).
Where a name gives a salt, the structure may show the parent alone. Read-outs that look alike come from different tables or passages of the source.

Key:
[1] = tested on: HUVEC proliferation induced by VEGF; test: Growth factor induced endothelial cell proliferation assay, VEGF; format: cell-based, human; settings: Homo sapiens, HUVEC, 72 h; read-out: VEGF (IC50) inhibition of HUVEC proliferation
Source text: (§1) HUVEC cells were maintained and subcultured according to standard cell culture protocols essentially as described by Lonza. Briefly, cells were maintained in Lonza endothelial growth media (EGM) with recommended supplements and growth factors (VEGF, FGF2, EFG, IGF, hydrocortisone, fetal bovine serum (FBS), ascorbic acid, heparin and gentamicin). Cells were subcultured when they reached 70-80% confluence by trypsinisation and reseeding in fresh growth medium in new culture vessels at 2500 to 5000 cells/cm^2 of vessel surface area. Cell counts were performed using a haemocytometer and viable cells were visualized with trypan blue.
(§2) Medium for the proliferation studies was prepared using EGM with 2% FBS and gentamicin only. In a later study, complete EGM was used for the VEGF groups in an attempt to enhance the proliferative index of VEGF-stimulated groups. For the tube formation assay, complete medium was used with only heparin omitted. Compounds under investigation were weighed out from powder stocks and diluted in PBS to 10 mM stock solutions and stored at −80° C. For experiments, compounds were subsequently diluted in EBM-2 medium (supplemented with 2% FBS and gentamicin) to various working concentration as required.
(§3) In the first of a series of experiments, the assay was further optimized by examining the cell density and growth factor concentration required to induce maximal proliferation by growth factors. Briefly, 100 μL of cells was added to each well at concentrations between 1-3×10^3 per well. Growth factors and test compounds were then added in 50 μL volumes at specified concentrations to obtain a final volume of 200 μL. Following incubation for 70 h, 20 μL of the CellTitre 96® Aqueous One Solution Cell Proliferation Assay (Promega) was added for 2 h prior to reading the absorbance at 490 nm to obtain OD values.

FGF-2 = FGF-2 (Homo sapiens, UniProt P09038); test: Growth factor binding assay (SPR solution affinity), FGF-2
Sequence of FGF-2 (P09038 143-288, species assumed): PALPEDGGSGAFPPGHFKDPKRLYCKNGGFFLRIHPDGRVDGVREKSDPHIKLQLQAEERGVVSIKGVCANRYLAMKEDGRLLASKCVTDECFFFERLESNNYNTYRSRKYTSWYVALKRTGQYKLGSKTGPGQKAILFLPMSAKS
Procedure: (§4) Binding affinities of compounds for the growth factors FGF-1, FGF-2 and VEGF were measured using a surface plasmon resonance (SPR) based solution affinity assay.^9 Heparin-coated sensorchips used for this assay were prepared via immobilisation of biotinylated BSA-heparin on a streptavidin-coated sensorchip, or via aldehyde coupling using either adipic acid dihydrazide or 1,4-diaminobutane.^9 For each Kd measurement, solutions were prepared containing a fixed concentration of protein and varying concentrations of the ligand in buffer. Ligands binding to FGF-1 and VEGF were measured in HBS-EP buffer (10 mM HEPES, pH 7.4, 150 mM NaCl, 3.0 mM EDTA and 0.005% (v/v) polysorbate 20), while binding to FGF-2 was measured in HBS-EP buffer containing 0.3 M NaCl. Prior to injection, samples were maintained at 4° C. to maximise protein stability. For each assay mixture, 50-200 μL of solution was injected at 5-40 μL/min and the relative binding response measured. All surface binding experiments were performed at 25° C. The surface was regenerated by injection of 40 μL of 4M NaCl at 40 μL/min, followed by injection of 40 μL of buffer at 40 μL/min.
(§5) Sensorgram data were analysed using the BIAevaluation software (BIAcore) and Kd values determined as previously described.^9 Where Kd values were measured in duplicate, the values represent the average of the duplicate measurements.

FGF-1 = FGF-1 (Homo sapiens, UniProt P05230); test: Growth factor binding assay (SPR solution affinity), FGF-1
Sequence of FGF-1 (P05230 whole entry, species assumed): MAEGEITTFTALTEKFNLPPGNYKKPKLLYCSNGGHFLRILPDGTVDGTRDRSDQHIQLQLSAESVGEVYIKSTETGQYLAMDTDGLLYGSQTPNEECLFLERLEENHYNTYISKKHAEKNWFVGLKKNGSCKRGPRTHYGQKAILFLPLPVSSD
Procedure: as §4, §5

[2] = target: T1, recombinant human heparanase (Homo sapiens, UniProt Q9Y251); test: Heparanase inhibition assay (fondaparinux cleavage, WST-1)
T1 sequence (Q9Y251 158-543 limits assumed): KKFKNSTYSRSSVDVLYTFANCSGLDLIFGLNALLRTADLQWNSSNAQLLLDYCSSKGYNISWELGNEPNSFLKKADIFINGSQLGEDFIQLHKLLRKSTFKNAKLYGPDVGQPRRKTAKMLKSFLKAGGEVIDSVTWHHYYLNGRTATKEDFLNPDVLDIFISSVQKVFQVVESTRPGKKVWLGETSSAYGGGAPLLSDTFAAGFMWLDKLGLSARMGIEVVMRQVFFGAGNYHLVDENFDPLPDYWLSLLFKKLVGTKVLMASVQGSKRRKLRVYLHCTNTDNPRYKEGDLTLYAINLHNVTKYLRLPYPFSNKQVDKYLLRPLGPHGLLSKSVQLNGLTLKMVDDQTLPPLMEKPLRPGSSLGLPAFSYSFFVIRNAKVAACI
T1 sequence (Q9Y251 36-109 limits assumed): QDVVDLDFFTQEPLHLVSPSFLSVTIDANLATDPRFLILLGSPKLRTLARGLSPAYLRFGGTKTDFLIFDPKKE

RSV = test: Viral plaque number-reduction assay, RSV; settings: human respiratory syncytial virus, read-out: RSV IC50
Procedure: (§6) African green monkey kidney (GMK AH1) cells^46 were cultured in Eagle's minimum essential medium (EMEM) supplemented with 2% calf serum, 0.05% Primaton RL substance (Kraft Inc., Norwich, USA) and antibiotics. Human epidermoid carcinoma (HEp-2) cells were cultured in Dulbecco's modified EMEM (DMEM) supplemented with 10% fetal calf serum and antibiotics. […] The RSV strain A-2^50 was used. The RSV stock was prepared as described by Hallak et al.^51 and stored at −70° C. in the presence of 40% sucrose^52.
(§7) The viral infectivity (the plaque number-reduction) assay and the plaque size-reduction assay were carried out as described previously^17. […] Subsequently, the cells were washed with 2 mL of EMEM and overlaid with 1% methylcellulose solution in EMEM. The plaques were visualized by staining with crystal violet solution after 2 (HSV-2) or 3 (HSV-1) days of incubation at 37° C. […] When the compounds were screened for anti-HSV or anti-RSV activity, mixtures of 200 PFU of the virus and the test compound (100 μg/mL) in serum-free EMEM were incubated for 10 min at room temperature before addition to cells and during the entire period of viral infection of cells and the development of viral plaques. In the plaque size-reduction assay, the compounds were added to cells (in methylcellulose overlay medium) after 2 h period of virus infection of cells in the absence of the inhibitor. After 2-3 days of incubation at 37° C., the viral plaques were visualized by staining the cells with 1% solution of crystal violet. For each compound tested, the images of twenty neighboring plaques were captured using a Leica DC300 digital camera attached to a Leitz-Wetzlar Diavert microscope. The area of each plaque was determined using IM500 image software (Leica). Similar protocols were used for RSV, except that the assays were performed in HEp-2 cells and DMEM supplemented with 2% heat-inactivated fetal calf serum was used instead of EMEM.

[3] = tested on: HUVEC proliferation induced by FGF-1; test: Growth factor induced endothelial cell proliferation assay, FGF-1; format: cell-based, human; settings: Homo sapiens, HUVEC, 72 h; read-out: FGF-1 (IC50) inhibition of HUVEC proliferation
Source text: as §1, §2, §3

[4] = tested on: pooled normal human plasma; test: Anticoagulant activity, APTT; settings: 0.1 mg/mL in normal pooled human plasma
Procedure: APTT measurements were performed on a STAGO STA-Compact Coagulation Analyser using standard protocols according to the manufacturer's instructions. Unfractionated heparin (UFH) was used as a control.

[5] = tested on: normal pooled human plasma; test: Anticoagulant activity, Heptest; settings: 0.1 mg/mL in normal pooled human plasma
[6] = tested on: HUVEC proliferation induced by FGF-2; test: Growth factor induced endothelial cell proliferation assay, FGF-2; format: cell-based, human; settings: Homo sapiens, HUVEC, 72 h; read-out: FGF-2 (IC50) inhibition of HUVEC proliferation
Source text: as §1, §2, §3

VEGF = target: T2, VEGF (Homo sapiens, UniProt P15692); test: Growth factor binding assay (SPR solution affinity), VEGF; settings: HBS-EP buffer, 25° C.
T2 sequence (P15692 207-395): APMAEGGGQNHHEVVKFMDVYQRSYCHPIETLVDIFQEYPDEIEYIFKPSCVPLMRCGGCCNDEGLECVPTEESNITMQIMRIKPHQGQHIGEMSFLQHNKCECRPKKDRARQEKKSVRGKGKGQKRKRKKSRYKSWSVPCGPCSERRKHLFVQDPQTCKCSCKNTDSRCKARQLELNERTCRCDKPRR
Procedure: as §4, §5

HSV-2 = test: Viral plaque number-reduction assay, HSV-2; settings: Human alphaherpesvirus 2, read-out: HSV-2 IC50
Procedure: as §6, §7

[7] = SPR, HBS-EP buffer containing 0.3 M NaCl, 25° C., read-out: Kd FGF-2
[8] = SPR, HBS-EP buffer, 25° C., read-out: Kd FGF-1

## CC(C)CCCC(C)C1CCC2C3CCC4CC(OCc5cn(C6OC(COS(=O)(=O)O)C(OC7OC(COS(=O)(=O)O)C(OS(=O)(=O)O)C(OS(=O)(=O)O)C7OS(=O)(=O)O)C(OS(=O)(=O)O)C6OS(=O)(=O)O)nn5)CCC4(C)C3CCC12C [Compound 93, 4-(Cholestan-3β-yl-oxymethyl) [1,2,3]triazol-1-yl 2,3,4,6-tetra-O-sulfo-β-D-galactopyranosyl-(1→4)-2,3,6-tri-O-sulfo-β-D-glucopyranoside, heptasodium salt]
[1]
  IC50: 2620 nM
FGF-2
  Kd: 1800 ± 300 nM
FGF-1
  Kd: 610 ± 210 nM
[2]
  Ki: 30 ± 7 nM
RSV
  IC50: 0.4 µg/mL
[3]
  IC50: 2690 nM
[4]
  APTT: 39.6 s
[5]
  Heptest: 25.3 s
[6]
  IC50: 2430 nM
VEGF
  Kd: 1600 ± 300 nM
HSV-2
  IC50: 0.27 µg/mL

## CC(C)CCCC(C)C1CCC2C3CCC4CC(OC5OC(COS(=O)(=O)O)C(OC6OC(COS(=O)(=O)O)C(OS(=O)(=O)O)C(OS(=O)(=O)O)C6OS(=O)(=O)O)C(OS(=O)(=O)O)C5OS(=O)(=O)O)CCC4(C)C3CCC12C [Compound 102, 3′-Cholestanyl 2,3,4,6-tetra-O-sulfo-α-D-glucopyranosyl-(1→4)-2,3,6-tri-O-sulfo-β-D-glucopyranoside, heptasodium salt]
[1]
  IC50: 5170 nM
FGF-2; [7]
  Kd: 2200 ± 400 nM
FGF-1
  Kd: 560 ± 30 nM
RSV
  IC50: 1.8 µg/mL
[3]
  IC50: 3950 nM
[4]
  APTT: 38.6 s
[5]
  Heptest: 23.9 s
[6]
  IC50: > 10000 nM
VEGF
  Kd: 1200 ± 400 nM
HSV-2
  IC50: 0.43 µg/mL

## CC(C)CCC[C@@H](C)[C@H]1CC[C@H]2[C@@H]3CC[C@H]4C[C@@H](OCc5cn([C@@H]6O[C@H](COS(=O)(=O)O)[C@@H](O[C@H]7O[C@H](COS(=O)(=O)O)[C@@H](OS(=O)(=O)O)[C@H](OS(=O)(=O)O)[C@H]7OS(=O)(=O)O)[C@H](OS(=O)(=O)O)[C@H]6OS(=O)(=O)O)nn5)CC[C@]4(C)[C@H]3CC[C@]12C [Compound 97, 4-(Cholestan-3β-yl-oxymethyl) [1,2,3]triazol-1-yl 2,3,4,6-tetra-O-sulfo-α-D-glucopyranosyl-(1→4)-2,3,6-tri-O-sulfo-β-D-glucopyranoside, heptasodium salt]
[1]
  IC50: 1130 nM
FGF-2; [7]
  Kd: 3400 ± 300 nM
FGF-1; [8]
  Kd: 840 ± 130 nM
RSV
  IC50: 0.58 µg/mL
[3]
  IC50: 4090 nM
[4]
  APTT: 40.3 s
[5]
  Heptest: 26.7 s
[6]
  IC50: 4170 nM
VEGF
  Kd: 1930 ± 230 nM
HSV-2
  IC50: 0.26 µg/mL

## CC(C)CCC[C@@H](C)[C@H]1CC[C@H]2[C@@H]3CCC4CC(O[C@@H]5O[C@H](COS(=O)(=O)O)[C@@H](O[C@@H]6O[C@H](COS(=O)(=O)O)[C@@H](OS(=O)(=O)O)[C@H](OS(=O)(=O)O)[C@H]6OS(=O)(=O)O)[C@H](OS(=O)(=O)O)[C@H]5OS(=O)(=O)O)CC[C@]4(C)[C@H]3CC[C@]12C (stereo partly drawn) [Compound 107, 3′-Cholestanyl 2,3,4,6-tetra-O-sulfo-β-D-glucopyranosyl-(1→4)-2,3,6-tri-O-sulfo-β-D-glucopyranoside, heptasodium salt]
[1]
  IC50: 5560 nM
RSV
  IC50: 1.9 µg/mL
[3]
  IC50: 5750 nM
[4]
  APTT: 38.8 s
[5]
  Heptest: 25.3 s
[6]
  IC50: 5590 nM
VEGF
  Kd: 1350 ± 70 nM
HSV-2
  IC50: 0.43 µg/mL

## CC(C)CCC[C@@H](C)[C@H]1CC[C@H]2[C@@H]3CC[C@H]4C[C@@H](O[C@H]5O[C@H](COS(=O)(=O)O)[C@@H](OS(=O)(=O)O)[C@H](OS(=O)(=O)O)[C@@H]5OS(=O)(=O)O)CC[C@]4(C)[C@H]3CC[C@]12C [Compound 79, 3β-Cholestanyl 2,3,4,6-tetra-O-sulfonato-α-D-mannopyranoside tetrasodium salt]
[1]
  IC50: 2240 nM
FGF-1; [8]
  Kd: 3600 ± 600 nM
[2]; read-out: Ki Heparanase, IC50 converted into Ki, fondaparinux 100 μM, pH 5.0
  Ki: 111 ± 28 nM
RSV
  IC50: 2.9 µg/mL
[3]
  IC50: 2200 nM
[4]
  APTT: 36.1 s
[5]
  Heptest: 23.9 s
[6]
  IC50: 2900 nM
VEGF
  Kd: 3000 ± 400 nM
HSV-2
  IC50: 0.28 µg/mL
